Series [1] is described as follows: Rat pharmacokinetics, intravenous dosing. The format is in vivo, Sprague-Dawley rats. The conditions noted are these: for AUC(0-t) / Cmax / clearance / half-life: male, Sprague-Dawley, rat plasma, 1 mg/kg IV (0.5 mg/mL). As for the experimental part: Intravenous dosing: Compounds were formulated at 0.5 mg/mL in a solution comprising 5% polyethylene glycol 400 and 95% (12% (w/v) sulfobutyl-β-cyclodextrin in water) (v/v). Formulated compounds were sterile filtered through a 0.22 micron filter before dosing. Compounds were administered to male, 7-11-week-old Sprague-Dawley rats by jugular vein cannula infusion over 30 minutes at a dose of 1 mg/kg.
Sample collection: Blood collections of about 0.2 mL per time point were performed from jugular vein or other suitable site of each animal, into pre-chilled commercial EDTA-K2 tubes and placed on wet ice until centrifugation. Blood samples were processed for plasma by centrifugation at approximately 4° C., 3,200 g for 10 min. Plasma was collected and transferred into pre-labeled 96 well plate or polypropylene tubes, quick frozen over dry ice and kept at −60° C. or lower until LC-MS/MS analysis.
Data analysis: Plasma concentration versus time data was plotted in graph and analyzed by non-compartmental approaches using the Phoenix WinNonlin 6.3 software program. Related PK parameters were calculated according to dosing route, e.g., CL, Vdss and C0 for intravenous administration, Cmax, Tmax or % F for extravascular administration, and T1/2, AUC(0-t), AUC(0-inf), MRT(0-t), MRT(0-inf) for all routes.

The test system of series [2] is C57BL/6 mice expressing human GLP-1R (hGLP-1R). Briefly: Food intake in humanized mouse model. It counts as in vivo. The conditions noted are these: hGLP-1R mice, relative to vehicle control; Compound 2 10, 30, 60 mg/kg PO. As to the method: The ability of compounds disclosed herein to modify the food intake of C57BL/6 mice expressing human GLP-1R (hGLP-1R) was evaluated.
The dose protocol used in this study is described in Table 6.
Acclimation and grouping: Mice were acclimated for QD PO dosing with vehicle for 4 days, baseline body weight and food intake were measured for 4 consecutive days. Animals were allocated into 8 groups based on body weight and 3rd day's food intake.
Dose body weight and food intake measurement: All animals were placed in clean cages with sawdust bedding and fasted overnight, mice were dosed with vehicle or test compound in the morning. All group's food was added 15 minutes post dosing, food remaining was recorded at 2-, 4-, 6-, 8-, 10- and 24-h post dosing. (FIG. 4) Body weight was determined on a daily basis during the study.
Data processing and analysis: Manual data were transferred into an excel spreadsheet. All values were expressed as mean±S.E.M. The significances of the differences among groups and within groups are evaluated by one-way or two-way ANOVA using Graph Pad statistic software. A p-value of less than 0.05 was considered statistically significant.

The mark [3] stands for this setting: rat, intravenous administration.

Entries after “also recorded” stand apart in the source; their conditions may differ.

Turning to `N#Cc1ccc(COc2cccc(C3CCN(Cc4nc5ccc(C(=O)O)cc5n4Cc4cncs4)CC3)n2)c(F)c1` [Compound 2], in series [1], the AUC(0-t) was found to be 0.427 ± 0.0277 µg·h/mL, the highest level (Cmax) was 0.596 ± 0.0423 µg/mL, the clearance was 2.33 ± 0.153 L/h/kg and the half-life is 1.57 ± 0.583 h. In series [1] (setting [3]), the “longer t1/2 as compared with Reference Compound A” value is on record as roughly 2 fold and the “lower clearance as compared with Reference Compound A” value worked out at 30%. Moreover, the food intake entry in series [2] is recorded as “reduction in food intake; also recorded: significantly suppressed food intake”.

As for `N#Cc1ccc(COc2cccc(C3CCN(Cc4nc5ccc(C(=O)O)cc5n4C[C@@H]4CCO4)CC3)n2)c(F)c1` [Reference Compound A, reference compound], in series [1], the AUC(0-t) was 0.325 ± 0.0168 µg·h/mL, the Cmax stood at 0.486 ± 0.0379 µg/mL, the clearance came out at 3.07 ± 0.155 L/h/kg and the half-life is 0.613 ± 0.344 h. Moreover, the food intake result in series [2] is listed as “reduction in food intake”.

For orientation: AUC(0-t) means the area under the concentration-time curve up to a stated or last time point. For orientation: Cmax means the highest concentration seen after dosing. What is called clearance is the rate of elimination divided by the concentration. Low readings indicate inefficient removal, high ones efficient removal. Usually half-life stands for the time needed for the level to fall by half in the phase considered. A lower half-life goes with fast loss.

Source of the values: patent publication US12522596B2, “Compounds as GLP-1R agonists” (Terns Pharmaceuticals, Inc., priority 2021, dated 2026).
